Legend:
786-0 = assay: NCI 60 cell line panel screen (SRB); assay type: cell-based, human
U251 = assay: NCI 60 cell line panel screen (SRB); assay type: cell-based, human
NCI-H322M = assay type: cell-based
OVCAR-3 = assay: NCI 60 cell line panel screen (SRB); assay type: cell-based, human
HCT-116 = assay: NCI 60 cell line panel screen (SRB); assay type: cell-based, human
MDA-MB-435 = assay: NCI 60 cell line panel screen (SRB); assay type: cell-based, human
HCT-15 = assay: NCI 60 cell line panel screen (SRB); assay type: cell-based, human
IGROVI = assay: NCI 60 cell line panel screen (SRB); assay type: cell-based, human; conditions: IGROVI (Ovarian Cancer)
RPMI-8226 = assay: NCI 60 cell line panel screen (SRB); assay type: cell-based, human
SNB-75 = assay: NCI 60 cell line panel screen (SRB); assay type: cell-based, human; conditions: SNB-75 (CNS Cancer)
T-47D = assay: NCI 60 cell line panel screen (SRB); assay type: cell-based, human
MALME-3M = assay: NCI 60 cell line panel screen (SRB); assay type: cell-based, human
NCI-H23 = assay: NCI 60 cell line panel screen (SRB); assay type: cell-based, human
HOP-92 = assay: NCI 60 cell line panel screen (SRB); assay type: cell-based, human
HS 578T = assay: NCI 60 cell line panel screen (SRB); assay type: cell-based, human
M14 = assay: NCI 60 cell line panel screen (SRB); assay type: cell-based, human
NCI-H460 = assay: NCI 60 cell line panel screen (SRB); assay type: cell-based, human
60 cell line panel = assay type: cell-based
COLO 205 = assay: NCI 60 cell line panel screen (SRB); assay type: cell-based, human
KM12 = assay: NCI 60 cell line panel screen (SRB); assay type: cell-based, human
SK-MEL-28 = assay: NCI 60 cell line panel screen (SRB); assay type: cell-based, human
PC-3 = assay: NCI 60 cell line panel screen (SRB); assay type: cell-based, human
UO-31 = assay: NCI 60 cell line panel screen (SRB); assay type: cell-based, human
SNB-19 = assay: NCI 60 cell line panel screen (SRB); assay type: cell-based, human
OVCAR-5 = assay: NCI 60 cell line panel screen (SRB); assay type: cell-based, human
SK-MEL-2 = assay: NCI 60 cell line panel screen (SRB); assay type: cell-based, human
TK-10 = assay: NCI 60 cell line panel screen (SRB); assay type: cell-based, human
[1] = mean value over the 60 cell line panel

**Q.** Which results are given for `CC1CCC2C(C)C(CC(O)(CC3OC4OC5(C)CCC6C(C)CCC(C3C)C46OO5)CS(=O)(=O)c3ccc(C(=O)O)cc3)OC3OC4(C)CCC1C32OO4` (stereo not drawn) [Compound 10c, bis-trioxane β-hydroxysulfone benzoic acid]?
**A.** Log10LC50 (786-0; 786-0 (Renal Cancer), LC50: PG=−50): −4.64 log10M; Log10TGI50 (786-0; 786-0 (Renal Cancer), TGI: PG=0): −5.08 log10M; Log10GI50 (786-0; Renal Cancer, 786-0): <−8.30; Log10GI50 (U251; CNS Cancer, U251): <−8.30; Log10LC50 (U251; U251 (CNS Cancer), LC50: PG=−50): −4.72 log10M; Log10TGI50 (U251; U251 (CNS Cancer), TGI: PG=0): −5.22 log10M; Log10GI50 (NCI-H322M): −6.03; Log10TGI50 (NCI-H322M): −4.98 log10M; Log10LC50 (NCI-H322M; NCI-H322M (Non-Small Cell Lung Cancer), LC50: PG=−50): −4.57 log10M; Log10LC50 (OVCAR-3; OVCAR-3 (Ovarian Cancer), LC50: PG=−50): −5.01 log10M; Log10TGI50 (OVCAR-3; OVCAR-3 (Ovarian Cancer), TGI: PG=0): <−8.30 log10M; Log10GI50 (OVCAR-3; Ovarian Cancer, OVCAR-3): <−8.30; Log10GI50 (HCT-116; Colon Cancer, HCT-116): <−8.30; Log10LC50 (HCT-116; HCT-116 (Colon Cancer), LC50: PG=−50): −4.72 log10M; Log10TGI50 (HCT-116; HCT-116 (Colon Cancer), TGI: PG=0): −5.16 log10M; Log10GI50 (MDA-MB-435; Breast Cancer, MDA-MB-435): <−8.30; Log10LC50 (MDA-MB-435; MDA-MB-435 (Breast Cancer), LC50: PG=−50): −4.60 log10M; Log10TGI50 (MDA-MB-435; MDA-MB-435 (Breast Cancer), TGI: PG=0): −5.17 log10M; Log10GI50 (HCT-15; Colon Cancer, HCT-15): <−8.30; Log10LC50 (HCT-15; HCT-15 (Colon Cancer), LC50: PG=−50): −4.70 log10M; Log10TGI50 (HCT-15; HCT-15 (Colon Cancer), TGI: PG=0): −5.23 log10M; Log10LC50 (IGROVI; LC50: PG=−50): >−4.30 log10M; Log10TGI50 (IGROVI; TGI: PG=0): >−4.30 log10M; Log10GI50 (RPMI-8226; Leukemia, RPMI-8226): <−8.30; Log10LC50 (RPMI-8226; RPMI-8226 (Leukemia), LC50: PG=−50): >−4.30 log10M; Log10TGI50 (RPMI-8226; RPMI-8226 (Leukemia), TGI: PG=0): −5.03 log10M; Log10LC50 (SNB-75; LC50: PG=−50): −4.32 log10M; Log10TGI50 (SNB-75; TGI: PG=0): −4.80 log10M; Log10GI50 (T-47D; Breast Cancer, T-47D): <−8.30; Log10LC50 (T-47D; T-47D (Breast Cancer), LC50: PG=−50): >−4.30 log10M; Log10LC50 (MALME-3M; MALME-3M (Melanoma), LC50: PG=−50): −4.80 log10M; Log10TGI50 (MALME-3M; MALME-3M (Melanoma), TGI: PG=0): <−8.30 log10M; Log10GI50 (MALME-3M; Melanoma, MALME-3M): <−8.30; Log10LC50 (NCI-H23; NCI-H23 (Non-Small Cell Lung Cancer), LC50: PG=−50): −4.77 log10M; Log10TGI50 (NCI-H23; NCI-H23 (Non-Small Cell Lung Cancer), TGI: PG=0): −5.25 log10M; Log10GI50 (NCI-H23; Non-Small Cell Lung Cancer, NCI-H23): <−8.30; Log10LC50 (HOP-92; HOP-92 (Non-Small Cell Lung Cancer), LC50: PG=−50): −4.52 log10M; Log10TGI50 (HOP-92; HOP-92 (Non-Small Cell Lung Cancer), TGI: PG=0): −5.05 log10M; Log10GI50 (HOP-92; Non-Small Cell Lung Cancer, HOP-92): <−8.30; Log10GI50 (HS 578T; Breast Cancer, HS 578T): −4.82; Log10LC50 (HS 578T; HS 578T (Breast Cancer), LC50: PG=−50): >−4.30 log10M; Log10TGI50 (HS 578T; HS 578T (Breast Cancer), TGI: PG=0): −4.53 log10M; Log10LC50 (M14; M14 (Melanoma), LC50: PG=−50): −4.42 log10M; Log10TGI50 (M14; M-14 (Melanoma), TGI: PG=0): −4.91 log10M; Log10GI50 (M14; Melanoma, M14): <−8.30; Log10LC50 (NCI-H460; NCI-H460 (Non-Small Cell Lung Cancer), LC50: PG=−50): −4.62 log10M; Log10TGI50 (NCI-H460; NCI-H460 (Non-Small Cell Lung Cancer), TGI: PG=0): −5.11 log10M; Log10GI50 (NCI-H460; Non-Small Cell Lung Cancer, NCI-H460): <−8.30; Log10GI50 Delta (60 cell line panel): −0.73; Log10GI50 Range (60 cell line panel): 3.48; Log10LC50 Delta (60 cell line panel; 60 cell line panel): 1.00; Log10LC50 Range (60 cell line panel; 60 cell line panel): 1.25; Log10TGI50 Delta (60 cell line panel; 60 cell line panel): 2.79; Log10TGI50 Range (60 cell line panel; 60 cell line panel): 4.00; growth inhibition in words (60 cell line panel; colon cancer KM12, ovarian cancer OVCAR 3, breast cancer MDA-MB-435): selectively and strong inhibitory; Log10GI50 MG MID (60 cell line panel; mean over panel): −7.57; Log10LC50 MG MID (60 cell line panel; [1]): −4.55 log10M; Log10TGI50 MG MID (60 cell line panel; [1]): −5.51 log10M; Log10LC50 (COLO 205; COLO 205 (Colon Cancer), LC50: PG=−50): −5.55 log10M; Log10TGI50 (COLO 205; COLO 205 (Colon Cancer), TGI: PG=0): <−8.30 log10M; Log10GI50 (COLO 205; Colon Cancer, COLO 205): <−8.30; Log10GI50 (KM12; Colon Cancer, KM12): <−8.30; Log10LC50 (KM12; KM12 (Colon Cancer), LC50: PG=−50): −5.23 log10M; Log10TGI50 (KM12; KM12 (Colon Cancer), TGI: PG=0): <−8.30 log10M; Log10GI50 (SK-MEL-28; Melanoma, SK-MEL-28): −5.45; Log10LC50 (SK-MEL-28; SK-MEL-28 (Melanoma), LC50: PG=−50): >−4.30 log10M; Log10TGI50 (SK-MEL-28; SK-MEL-28 (Melanoma), TGI: PG=0): −4.63 log10M; Log10LC50 (PC-3; PC-3 (Prostate Cancer), LC50: PG=−50): −4.62 log10M; Log10TGI50 (PC-3; PC-3 (Prostate Cancer), TGI: PG=0): −5.23 log10M; Log10GI50 (PC-3; Prostate Cancer, PC-3): <−8.30; Log10GI50 (UO-31; Renal Cancer, UO-31): −5.91; Log10LC50 (UO-31; UO-31 (Renal Cancer), LC50: PG=−50): >−4.30 log10M; Log10TGI50 (UO-31; UO-31 (Renal Cancer), TGI: PG=0): >−4.30 log10M; Log10GI50 (SNB-19; CNS Cancer, SNB-19): −6.72; Log10LC50 (SNB-19; SNB-19 (CNS Cancer), LC50: PG=−50): −4.44 log10M; Log10TGI50 (SNB-19; SNB-19 (CNS Cancer), TGI: PG=0): −4.96 log10M; Log10LC50 (OVCAR-5; OVCAR-5 (Ovarian Cancer), LC50: PG=−50): −4.88 log10M; Log10TGI50 (OVCAR-5; OVCAR-5 (Ovarian Cancer), TGI: PG=0): <−8.30 log10M; Log10GI50 (OVCAR-5; Ovarian Cancer, OVCAR-5): <−8.30; Log10LC50 (SK-MEL-2; SK-MEL2 (Melanoma), LC50: PG=−50): >−4.30 log10M; Log10TGI50 (SK-MEL-2; SK-MEL-2 (Melanoma), TGI: PG=0): >−4.30 log10M; Log10GI50 (TK-10; Renal Cancer, TK-10): <−8.30; Log10LC50 (TK-10; TK-10 (Renal Cancer), LC50: PG=−50): −4.62 log10M; Log10TGI50 (TK-10; TK-10 (Renal Cancer), TGI: PG=0): −5.40 log10M

Reference: patent US7417156B2, “Orally active, antimalarial, anticancer, artemisinin-derived trioxane dimers” (Johns Hopkins University, priority 2002, dated 2008)
